pIC50: −log10 of the molar value.
molecular target: alanyl aminopeptidases (APN) (Homo sapiens, UniProt P15144); assay: Inhibition of alanyl aminopeptidase enzymatic activity, fluorogenic substrate (Ala)2-rhodamine 110; assay type: biochemical; settings: Table 1, unstarred values; read-out: IC50APN
Protocol: The inhibition characteristics measured are referred to as IC-50 values or ID50 values (the latter marked with “*”) for said enzyme. The enzymatic activity was determined by means of the fluorogenic substrate/product (Ala)2-rhodamine 110.

alanyl aminopeptidases (APN), sequence (P15144 whole entry, species assumed): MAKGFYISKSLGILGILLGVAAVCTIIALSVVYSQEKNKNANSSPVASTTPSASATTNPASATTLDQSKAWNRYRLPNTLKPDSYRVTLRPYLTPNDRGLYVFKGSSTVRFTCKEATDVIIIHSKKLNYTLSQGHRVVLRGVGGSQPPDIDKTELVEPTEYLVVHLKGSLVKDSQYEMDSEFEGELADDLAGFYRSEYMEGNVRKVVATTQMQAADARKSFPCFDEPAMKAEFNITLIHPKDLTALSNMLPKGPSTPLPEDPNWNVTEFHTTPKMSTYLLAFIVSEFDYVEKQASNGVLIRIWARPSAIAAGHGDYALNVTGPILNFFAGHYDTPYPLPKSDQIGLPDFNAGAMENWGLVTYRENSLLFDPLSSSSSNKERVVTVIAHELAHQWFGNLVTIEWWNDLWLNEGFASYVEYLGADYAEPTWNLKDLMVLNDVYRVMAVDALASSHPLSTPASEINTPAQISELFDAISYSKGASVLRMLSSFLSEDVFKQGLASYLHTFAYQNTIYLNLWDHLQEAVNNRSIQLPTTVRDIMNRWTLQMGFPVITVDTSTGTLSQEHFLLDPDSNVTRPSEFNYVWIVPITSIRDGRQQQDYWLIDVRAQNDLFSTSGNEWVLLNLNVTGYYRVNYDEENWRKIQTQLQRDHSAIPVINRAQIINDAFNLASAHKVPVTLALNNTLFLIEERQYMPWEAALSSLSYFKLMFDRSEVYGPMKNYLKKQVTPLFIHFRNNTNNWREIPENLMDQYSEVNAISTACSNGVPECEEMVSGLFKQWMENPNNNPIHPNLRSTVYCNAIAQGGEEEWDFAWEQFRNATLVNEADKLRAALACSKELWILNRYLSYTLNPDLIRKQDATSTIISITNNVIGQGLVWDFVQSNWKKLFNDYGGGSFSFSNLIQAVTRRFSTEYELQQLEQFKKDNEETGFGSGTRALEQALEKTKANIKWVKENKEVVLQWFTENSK

pIC50	Structure (SMILES)
5.25	Cc1cc(Cl)ccc1OCCC(=O)NO [A1.002]
5.20	O=C(CCOC(c1ccccc1)c1ccc(Br)cc1)NO (centres unmarked) [A1.003]
5.19	O=C(COc1ccc(Br)cc1)NO [A1.004]
5.14	O=C(CCOC(c1ccccc1)c1ccc(Cl)cc1)NO (centres unmarked) [A1.005]
5.12	CCOc1ccc(CC(=O)NO)cc1 [A1.006]
5.08	O=C(ON1C(=O)CCC1=O)C1CCC(=O)N1C(=O)OCc1ccccc1 (centres unmarked) [A1.007]
4.94	O=C(CS(=O)(=O)c1ccc(Cl)cc1)NO [A1.008]
4.85	O=C(CCCCCN1C(=O)c2cccc3cccc(c23)C1=O)NO [A1.009]
4.85	Cc1ccc(C(OCCC(=O)NO)c2ccccc2)cc1 (centres unmarked) [A1.010]
4.77	O=C(O)C1N=NC(c2ccc(F)cc2)=CN1O (centres unmarked) [A1.011]
4.66	O=C(CCOC(c1ccc(F)cc1)c1ccc(F)cc1)NO [A1.012]
4.60	CC(CCc1ccccc1)C(=O)NO (centres unmarked) [A1.013]
4.48	COc1ccc(C(OCCC(=O)NO)c2ccccc2)cc1 (centres unmarked) [A1.014]
4.09	N#CCCCCCCCCC(=O)NO [A1.015]

same assay, conditions: Table 2; read-out: IC50APN

pIC50	Structure (SMILES)
5.66	CCCCc1noc2c1/C(=N/O)CC(c1ccccc1)C2 (centres unmarked) [A2.001]
5.07	C/C(=N/O)c1ccc2c(c1)OCCOCCOc1cc(/C(C)=N\O)ccc1OCCOCCO2 [A2.002]
4.96	Cc1ccc(/C=N/NC(=O)c2nnn(-c3nonc3N)c2C)o1 [A2.003]
4.90	COCc1nnn(-c2nonc2N)c1C(=O)N/N=C/c1ccco1 [A2.004]
4.87	N/C(=N/OS(=O)(=O)c1ccc(C(F)(F)F)cc1)C1CSCCS1 (centres unmarked) [A2.006]
4.84	N/C(=N\N=C\c1ccco1)c1nonc1N [A2.007]
4.33	Nc1nonc1-n1nnc(C(=O)N/N=C/c2ccco2)c1-c1ccccc1 [A2.008]
4.03	COC(=O)CCC/C=C1/SC[C@@H](NC(=O)c2ccccc2)/C1=N/O [A2.010]

same assay, conditions: Table 3, starred values = ID50; read-out: ID50 APN (values marked with *)

pIC50	Structure (SMILES)
6.05	CCOC(=O)c1ncn(C(=O)OC)c1N [A3.002]
5.92	CC1=C(C#N)C(=O)N(CCO)C(=O)/C1=C\c1ccc(-c2cc(Cl)ccc2Cl)o1 [A3.003]
5.66	CCCCc1noc2c1/C(=N/O)CC(c1ccccc1)C2 (centres unmarked) [A3.006]
5.59	CCOC(=O)c1nc[nH]c1N [A3.007]
5.59	Nc1ccc2c(c1)C/C(=C\c1ccco1)C2=O [A3.008]

same assay, conditions: Table 3, unstarred values

IC50APN	Structure (SMILES)
“very high	COC(=O)C1=C(N)N2C(=O)CSC2=C(C(=O)OC)C1 [A3.001]

same assay, conditions: Table 3, unstarred values; read-out: IC50APN

pIC50	Structure (SMILES)
5.52	O=C(Nc1cccc(/N=C/c2cc(I)cc(I)c2O)c1)c1ccco1 [A3.009]
5.47	C/C(Cn1nnc([N+](=O)[O-])n1)=N/NC(=O)COc1ccccc1[N+](=O)[O-] [A3.010]
5.44	O=C(Nc1cccc(/N=C/c2cc(/N=N\c3ccccc3Cl)ccc2O)c1)c1ccco1 [A3.011]
5.37	CCOC(=O)c1nc(C)[nH]c1N [A3.012]
5.35	Cc1cc(C)c(C)c(C(=O)COC(=O)c2ccc(-n3c(C)ccc3C)cc2)c1C [A3.014]
5.33	COC(=O)C1=C(C(=O)OC)C(c2cc(Br)ccc2O)c2sc(O)nc2S1 (centres unmarked) [A3.015]
5.32	COc1ccc(/C=N/NC(=O)C2=C(C)Nc3ccccc3S2)cc1Cn1nc(C)c(Br)c1C [A3.016]
5.31	O=C(Nc1ccc(NCc2cc(Cc3ccccc3Cl)cc(Br)c2O)cc1)c1ccco1 [A3.017]
5.30	COC(=O)c1ccc(-c2ccc(/C=C3\C(=O)N(CCCO)C(=O)C(C#N)=C3C)o2)cc1 [A3.018]
5.28	O=C(CCC(=O)Nc1ccc(Br)cc1)N/N=C/c1ccco1 [A3.019]
5.27	CCOC(=O)c1c(N)ncn1-c1ccccc1 [A3.020]
5.21	CC1CCN(C(=O)/C(=C\c2ccco2)NC(=O)c2ccc(Cl)cc2)CC1 [A3.022]
5.20	COC(=O)c1cccc(-c2ccc(/C=C3\C(=O)N(CCO)C(=O)C(C#N)=C3C)o2)c1 [A3.023]
5.18	CCc1cccc(CC)c1NC(=S)N/N=C1\C(=O)N(CN2CC(C)CC(C)C2)c2ccccc21 (centres unmarked) [A3.024]
5.16	Cc1ccc(/C=N/NC(=O)c2nnn(-c3nonc3N)c2-c2ccccc2)o1 [A3.025]
5.14	CCOC(=O)N1CCc2c(sc(NC(=O)c3ccc(F)cc3)c2C(=O)Nc2ccc(Br)cc2)C1 [A3.026]
5.13	CCOC(=O)C1C(C)C2C3C(=O)N(c4cccc5ccccc45)C(=O)C3C1(C)C1C(=O)N(c3cccc4ccccc34)C(=O)C21 (centres unmarked) [A3.027]
5.10	O=C(N/N=C\c1ccco1)c1ccc(S(=O)(=O)N2CCCCCC2)cc1 [A3.029]
5.09	COc1ccc(Cl)cc1C(=O)N/C(=C/c1ccco1)C(=O)N1CC2CC(C1)c1cccc(=O)n1C2 (centres unmarked) [A3.030]
5.09	O=C(Nc1cccc(/N=C/c2cc(Br)cc(Br)c2O)c1)c1ccco1 [A3.031]
5.08	CCCCOC(=O)c1ccc(NC(=O)/C=C\c2ccco2)cc1 [A3.032]
5.08	O=C(/C=C/c1ccco1)Nc1ccc(C(=O)O)cc1 [A3.033]
5.02	COc1ccc(C2NCCS2)cc1 (centres unmarked) [A3.035]
5.01	CC1=C(C#N)C(=O)N(CCCO)C(=O)/C1=C\c1ccc(-c2cc(C)c(C)cc2[N+](=O)[O-])o1 [A3.037]

pIC50	Structure (SMILES)
5.01	Cc1ccc(/C=N/NC(=O)c2cccc(NC(=O)c3ccc(F)cc3)c2)o1 [A3.038]
4.98	Cc1ccc(/C=N/NC(=O)c2cccc(Cl)c2)o1 [A3.039]
4.97	O=C(N/C(=C\c1ccco1)C(=O)N1CCCCC1)c1ccco1 [A3.040]
4.96	Cc1ccc(/C=N/NC(=O)c2nnn(-c3nonc3N)c2C)o1 [A3.041]
4.96	Cc1ccc(C(=O)N/C(=C\c2ccco2)C(=O)N2CC3CC(C2)c2cccc(=O)n2C3)cc1 (centres unmarked) [A3.042]
4.96	COc1cc(Br)ccc1OCC(=O)N/N=C/C=C/c1ccco1 [A3.043]
4.95	C=CC[N+]1=C(/C=C2\SC(c3ccccc3)=C(c3ccccc3)N2CC)S/C(=C/C=C2\SC(c3ccccc3)=C(c3ccccc3)N2CC)C1=O [A3.045]
4.93	Cc1[nH]c2ccccc2c1C(c1cc(Cl)ccc1O)N1CCOCC1 (centres unmarked) [A3.046]
4.93	NNC(=O)c1ccc(NS(=O)(=O)c2cccs2)cc1 [A3.047]
4.93	Cc1ccc(C(=O)N/C(=C\c2ccco2)C(=O)N2CC3CC(C2)c2cccc(=O)n2C3)cc1C (centres unmarked) [A3.048]
4.92	C/C(=N\NC(=O)CNC(=O)/C=C/c1ccco1)c1ccc2ccccc2c1 [A3.050]
4.91	CCOc1cc(/C=N/NC(=O)CNC(=O)c2cccc(Cl)c2)ccc1OC(=O)c1cccs1 [A3.051]
4.91	Cc1nc(N)sc1C(=O)N/N=C/c1ccco1 [A3.052]
4.90	COCc1c(C(=O)N/N=C/c2ccc(C)o2)nnn1-c1nonc1N [A3.053]
4.89	CCN(CC)C(=O)/C(=C/c1ccco1)NC(=O)c1ccccc1 [A3.054]
4.89	Cc1cccc(C)c1NC(=S)NC(=O)c1cccs1 [A3.055]
4.89	O=C(COc1cccc2ccccc12)N/N=C/c1ccco1 [A3.056]
4.88	CC(C)COc1ccc(C(=O)N/C(=C\c2ccco2)C(=O)N2CCOCC2)cc1 [A3.057]
4.87	O=C(N/C(=C\c1ccco1)C(=O)N1CCOCC1)c1ccco1 [A3.058]
4.87	COC(=O)N/N=C(C)\C=C\c1ccco1 [A3.059]
4.87	O=C(COc1ccc(F)cc1)N/N=C/c1ccco1 [A3.060]
4.87	CCc1ccc(-c2cc(C(=O)N/N=C/c3c(C)nn(-c4ccccc4)c3C)[nH]n2)cc1 [A3.061]
4.86	O=C(COc1ccc2ccccc2c1)N/N=C/c1ccco1 [A3.062]
4.85	CCOC(=O)c1ncn(Cc2ccccc2)c1N [A3.063]

pIC50	Structure (SMILES)
4.84	O=C(N/N=C/c1ccco1)c1cc(C2CC2)n[nH]1 [A3.064]
4.84	Clc1ccc(-n2cc3c(-c4ccco4)nnc(-c4nc5ccccc5s4)c3n2)cc1 [A3.065]
4.84	O=C(N/N=C/c1ccco1)c1cc(-c2ccc(F)cc2)n[nH]1 [A3.066]
4.84	O=c1[nH]c(/C=C/c2ccco2)cc2ccccc12 [A3.067]
4.84	N/C(=N\N=C\c1ccco1)c1nonc1N [A3.068]
4.82	COC(=O)c1cc(-c2ccc(/C=C3\C(=O)N(CCCO)C(=O)C(C#N)=C3C)o2)ccc1Cl [A3.069]
4.82	O=C(NNC1=C(Cl)C(=O)C(Cl)(Cl)C1=O)c1ccccc1 [A3.070]
4.81	O=C(CNC(=O)C(c1ccccc1)c1ccccc1)N/N=C/c1ccco1 [A3.071]
4.81	CCOC(=O)CCCCC(=O)c1c(C)n(C(=O)c2ccc(N3C(=O)CCC3=O)cc2)c(=O)n1C(=O)c1ccc(N2C(=O)CCC2=O)cc1 [A3.072]
4.81	Cc1ccc(/C=C(\NC(=O)c2ccccc2)C(=O)NC2CC2)o1 [A3.073]
4.80	O=C(N/N=C/C=C\c1ccco1)c1ccco1 [A3.074]
4.80	O=C(N/N=C/c1ccco1)c1ccccc1O [A3.075]
4.80	Cc1ccc(/C=N/NC(=O)COc2ccc(Cl)cc2)o1 [A3.076]
4.79	Cc1ccc(NC(=O)/C(=C\c2ccco2)NC(=O)c2ccc(C)cc2)cc1 [A3.077]
4.79	COc1ccc(C2NCCS2)cc1Br (centres unmarked) [A3.078]
4.78	CC(C)c1cc(C(=O)N/N=C/c2ccco2)[nH]n1 [A3.080]
4.78	COc1ccc(/C=C(/NC(=O)c2ccccc2)C(=O)N/N=C\C=C\c2ccc(C)o2)cc1OC [A3.081]
4.77	O=C(N/N=C/c1ccco1)c1ccc(O)cc1 [A3.082]
4.77	COc1cc(/C=N/NC(=O)c2cc(-c3ccco3)n[nH]2)cc(OC)c1OC [A3.083]
4.75	Cc1ccc(/C=N/NC(=O)c2ccccc2Cl)o1 [A3.084]
4.75	Cc1ccc(NC(=O)/C(=C\c2ccco2)NC(=O)c2ccccc2Cl)cc1 [A3.086]
4.74	C=CCOC(=O)c1cc(-c2ccc(/C=C3/C(=O)N(CCCO)C(=O)C(C#N)=C3C)o2)ccc1Cl [A3.087]

Reference: patent US20070037752A1, “Novel alanyl-amino peptidase inhibitors for functionally influencing different cells and treating immunological, inflammatory, neuronal, and other diseases” (priority 2003, published 2007)
